The test system of one data set is N2a-SwedAPP cells. Nature of the data set: MTT viability assay in N2a-SwedAPP cells. The data set is classed as cell-based, murine. The conditions noted are these: mouse, 48 h. As for the experimental part: (§1) N2a-SwedAPP cells were obtained from Dr. Gopal Thinakaran (University of Chicago, Chicago, Ill., USA). N2a-SwedAPP cells were cultured in Dulbecco's modified Eagle's medium (DMEM) and OPTI-MEM medium in a 1:1 ratio with 5% FBS, 50 μg/mL penicillin, 50 μg/mL streptomycin and 200 μg/mL G418 as previously described in Thinakaran G, Teplow D B, Siman R, Greenberg B, Sisodia S S (1996) Metabolism of the “Swedish” amyloid precursor protein variant in neuro2a (N2a) cells. J Biol Chem 271: 9390-9397. N2a-SwedAPP cells were incubated at 37° C. in a 5% CO2/95% humidity incubator. Cells were seeded 24 hours prior to the treatments. When growth reached close to 90% of confluence, cells were transferred into DMEM with 1% FBS for loading extracts. The final concentration of DMSO in all experiments was 0.1%, and this concentration caused no cytotoxicity.
For the viability assay, N2a-SwedAPP cells were seeded in a 96-well plate (7000 cells/well and 5000 cells/well). […] Finally, optical intensity was measured using a BioRad plate reader at 570 nm and a reference of 620 nm. […]
N2a-SwedishAPP cells are widely used as a cellular model of Alzheimer's disease, because they express a high level of APP and Aβ. The effects of HLJDT and its components on viability of N2SwedAPP cells are monitored by using the MTT assay. […]

Data set [1] has as its system APP processing (F1-APP, pAPPThr668, CTFs, sAPPα, sAPPβ-sw) in N2a-SwedAPP cells. Briefly: Western blot of APP metabolic products in N2a-SwedAPP cells. It is filed as cell-based, murine. Further details: key to Fl-APP (overall influence) / CTFs (overall influence) / sAPPα (overall influence) / sAPPβ (overall influence): ↓ decreased; ↑ increased; ? unchanged. On the procedure:
as §1
To detect the levels of APP metabolic products, the cell lysates and the conditioned media were prepared as described in Durairajan S S K, Liu L F, Lu J H, Koo I, Maruyama K, Chung S K, Huang J D, Li M. (2011) Stimulation of non-amyloidogenic processing of amyloid-β protein precursor by cryptotanshinone involves activation and translocation of ADAM10 and PKC-α. J Alzheimer's Dis 25: 245-262, with minor modification. N2a-SwedAPP cells were seeded at a density of 4×10^5/mL in DMEM medium in a 6-well plate and cultured for 1 day. After transfer, cells were treated with different doses of RC, CP, FG and RS for 48 hours, then the extracellular media were collected for detection of sAPPα and sAPPβ-sw, and cells were harvested to quantify F1-APP and β-actin by Western blot analysis, as described previously by Durairajan et al. For intracellular APP, APP-CTFs and Aβ preparation, cells were washed with ice-cold PBS twice and solubilized in ice-cold RIPA buffer with protease inhibitor cocktail added. Lysates were collected and centrifuged at 16,000×g for 15 minutes at 4° C. The resulting supernatants were collected, and their protein concentrations were determined with bicinchoninic acid (BCA) protein assay reagent (Thermo Scientific, IL, USA). For sAPPα and sAPPβ-sw detection, the conditioned media are collected and frozen in liquid nitrogen, subjected to lyophilization at −40° C. under vacuum of 105 μbar for 2 days in order to remove all liquid. The conditioned media were standardized to total cell lysate protein.
For Western blot analysis from cell culture or mouse brain, 10-30 μg total protein is separated on 10% and 15% SDS-PAGE gels and blotted onto PVDF membranes for the detection of full length APP (F1-APP), CTFs, sAPPα, sAPPβ-sw, 3-actin and phosphorylated APP (pAPPThr668). After blocking with 5% skimmed milk, the blots are incubated with primary antibodies overnight at 4° C. with shaking. Blots are washed and incubated with HRP-conjugated secondary antibodies. The goat anti-mouse IgG is used when the primary antibody is 6E10 (1:1000), sAPPβ-sw (1:100), or anti-β-actin (1:5000), and the goat anti-rabbit IgG is used when the primary antibody is anti-CT15 (1:5000) or pAPPThr668 (1:1000). After incubation with HRP-conjugated secondary antibody, immunoblots are treated with ECL and developed using X-ray films (Fujifilm). Films are scanned, and the band intensity is analyzed using Image J software (NIH Image).
Stripped CT15 and 6E10 probed membranes are reincubated with pAPPThr668 and sAPPβ-sw 6A1 antibodies, respectively.
Western blotting of N2a-SwedAPP cells is used to test differences in the processing of Swedish mutant APP by HLJDT components. Several antibodies are used in Western blot analysis: CT15 recognizes full length APP (F1-APP), 6E10 identifies only α-secretase-cleaved APP i.e sAPPα, and the sAPPβ-sw specific for β-secretase cleavage of Swedish mutant APP.
A general note: Immunoblotting shows a protein as a band on a membrane.

Data set [2] relates to intracellular Aβ1-40 and Aβ1-42 in N2a-SwedAPP cells. Briefly: Sandwich ELISA of intracellular Aβ in N2a-SwedAPP cells. The data set is classed as cell-based, murine. Also on record: key to Aβs (overall influence): ↓ decreased; ↑ increased; ? unchanged. (In general: In an ELISA, binding on a coated surface is turned into a signal by an enzyme label.)
Experimental: N2a-SwedAPP cells were seeded at a density of 4×10^5/mL in DMEM medium in a 6-well plate and cultured for 1 day. After transfer, cells were treated with different doses of RC, CP, FG and RS for 48 hours, then the extracellular media were collected for detection of sAPPα and sAPPβ-sw, and cells were harvested to quantify F1-APP and β-actin by Western blot analysis, as described previously by Durairajan et al. For intracellular APP, APP-CTFs and Aβ preparation, cells were washed with ice-cold PBS twice and solubilized in ice-cold RIPA buffer with protease inhibitor cocktail added. Lysates were collected and centrifuged at 16,000×g for 15 minutes at 4° C. The resulting supernatants were collected, and their protein concentrations were determined with bicinchoninic acid (BCA) protein assay reagent (Thermo Scientific, IL, USA). […] The conditioned media were standardized to total cell lysate protein.
The levels of intracellular Aβ1-40 and Aβ1-42 are quantified by using a sandwich ELISA as previously described by Durairajan et al., 2011 with minor modification. Equal amounts of cell or brain lysates are used for Aβ quantification by sandwich ELISA. The monoclonal antibody 6E10 is used as the capture antibody by adding to ELISA plates (0.2 μg diluted in 0.1 M Na2CO3 (pH 9.6) per well) and incubated overnight at 4° C. The plates are washed with PBS (0.05% Tween 20) and blocked with 4% BlockAce (Serotec, Raleigh, N.C., USA) for 2 hours at room temperature. Equilibrated protein lysates from each treatment (a 100 μL volume is adjusted in all treatment groups by using PBS) are applied in duplicate and incubated at room temperature for 2 hours with constant rotation at 30 rpm. Biotinylated monoclonal anti-Aβ40 5C3 (50 ng per well) and biotinylated monoclonal 8G7 (50 ng per well) antibodies are used for detection of Aβ1-40 and Aβ1-42, respectively, and are diluted in 1% BlockAce and incubated for 2 hours at room temperature. Plates are thoroughly washed with PBS (0.05% Tween 20), and streptavidin conjugated HRP is added for 1 hour at room temperature. Finally the plates are washed four times with PBST before adding the substrate TMB for 30 minutes. Absorbance at 450 nm is measured in duplicate wells after addition of 2 M H2SO4. All ELISA experimental data are from three different days. Synthetic Aβ40 and Aβ42 peptides are used for construction of calibration curves, and Aβ is measured in lysates.
Another data set has as its system TgCRND8 mice. The conditions noted are these: chronic administration; cited from earlier work.

Molecules are shown by their SMILES.

Regarding `COc1ccc2cc3[n+](cc2c1OC)CCc1cc2c(cc1-3)OCO2` [berberine], in the data set on N2a-SwedAPP cells, the “non-toxic concentration (highest concentration that shows greater than 90% cell viability)” value stood at 12.5 µM. For the same compound, in data set [1] (6.25 μM, 48 hours), the “reduction of sAPPα level” value is 30% and the “reduction of sAPPβ-sw level” value amounted to 45%. In addition, in data set [1] (12.5 μM, 48 hours), the “reduction of CTFs level” value came out at 67%, the “reduction of F1-APP level” value is listed as 54%, the “reduction of pAPPThr668 level” value is recorded as 42% and the “reduction of sAPPα level” value amounted to 58%. For the same compound, the “reduction of sAPPβ-sw level” value in data set [1] (12.5 μM, 48 hours) was determined as 70%. Besides, in data set [1] (N2a-SwedAPP cells), the “CTFs (overall influence)” value is recorded as “↓”, the “Fl-APP (overall influence)” value is reported as “↓”, the “sAPPα (overall influence)” value is on record as “↓” and the “sAPPβ (overall influence)” value is “↓”. Besides, in data set [2] (12.5 μM, 48 h), the “reduction of intracellular Aβ1-40” value is given as 37% and the “reduction of intracellular Aβ1-42” value stood at 25%. Also, the “Aβs (overall influence)” value in data set [2] (N2a-SwedAPP cells) is listed as “↓”. Besides, in the data set with TgCRND8 mice, the “effect on Aβ pathology, gliosis and cognitive impairments” value was “significantly reduce”.

The values above are taken from US9375457B2, “Composition comprising Rhizoma coptidis, Cortex phellodendri and Fructus gardeniae and for treating neurodegenerative diseases” (Hong Kong Baptist University, priority 2013, dated 2016).
